Assay results taken from paper PMC4381067, “How ‘arm-twisting’ by the inducer triggers activation of the MalT transcription factor, a typical signal transduction ATPase with numerous domains (STAND)” (Nucleic Acids Research, 2015).

Key:
HMalT (His-tagged MalT) [1] = target: T1, HMalT (His-tagged MalT) (Escherichia coli, UniProt P06993); assay: filter-binding assay, dissociation of [α-32P]ADP complex chased by cold ADP; conditions: labelled compound; resting form, no maltotriose; buffer B pH 8.0, 10 mM Mg acetate, 25°C; 1 mM cold ADP chase
T1 construct: full-length, His-tagged; purified on Ni2+ resin then Superdex 200; monomeric in resting form, multimerizes with maltotriose and ATP
T1 sequence (P06993 1-901): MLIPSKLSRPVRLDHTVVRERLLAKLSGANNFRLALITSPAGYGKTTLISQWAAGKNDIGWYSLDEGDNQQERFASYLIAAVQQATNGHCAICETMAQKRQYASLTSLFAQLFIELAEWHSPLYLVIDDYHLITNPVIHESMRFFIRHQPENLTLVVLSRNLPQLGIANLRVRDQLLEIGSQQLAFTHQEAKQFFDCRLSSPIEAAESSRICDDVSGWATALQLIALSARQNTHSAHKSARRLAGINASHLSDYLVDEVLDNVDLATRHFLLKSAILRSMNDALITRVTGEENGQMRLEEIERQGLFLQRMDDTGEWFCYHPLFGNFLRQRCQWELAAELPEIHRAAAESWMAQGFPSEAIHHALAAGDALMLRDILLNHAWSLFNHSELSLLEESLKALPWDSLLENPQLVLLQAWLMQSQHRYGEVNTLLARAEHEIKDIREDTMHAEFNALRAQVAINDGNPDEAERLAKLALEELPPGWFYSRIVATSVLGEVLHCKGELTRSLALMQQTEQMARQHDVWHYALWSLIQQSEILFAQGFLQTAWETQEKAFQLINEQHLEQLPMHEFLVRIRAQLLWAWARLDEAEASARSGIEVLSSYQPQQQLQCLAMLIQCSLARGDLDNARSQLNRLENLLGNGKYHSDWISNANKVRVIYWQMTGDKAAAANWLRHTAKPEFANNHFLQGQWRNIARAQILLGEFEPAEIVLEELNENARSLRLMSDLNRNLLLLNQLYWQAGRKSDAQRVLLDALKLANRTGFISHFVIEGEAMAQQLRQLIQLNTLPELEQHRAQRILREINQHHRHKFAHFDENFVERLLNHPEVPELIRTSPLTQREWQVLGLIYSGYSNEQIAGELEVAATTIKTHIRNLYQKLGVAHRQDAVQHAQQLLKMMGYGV

HMalT (His-tagged MalT) [2] = target: T2, HMalT (His-tagged MalT) (Escherichia coli, UniProt P06993, Q70C/E395C); assay: as above; conditions: labelled compound; oxidized form (C70-C395 disulfide), no DTT, with or without 20 mM maltotriose; buffer B pH 8.0, 10 mM Mg acetate, 25°C; 1 mM cold ADP chase
T2 construct: full-length, His-tagged; purified on Ni2+ resin then Superdex 200; monomeric in resting form, multimerizes with maltotriose and ATP
T2 sequence (P06993 whole entry Q70C/E395C): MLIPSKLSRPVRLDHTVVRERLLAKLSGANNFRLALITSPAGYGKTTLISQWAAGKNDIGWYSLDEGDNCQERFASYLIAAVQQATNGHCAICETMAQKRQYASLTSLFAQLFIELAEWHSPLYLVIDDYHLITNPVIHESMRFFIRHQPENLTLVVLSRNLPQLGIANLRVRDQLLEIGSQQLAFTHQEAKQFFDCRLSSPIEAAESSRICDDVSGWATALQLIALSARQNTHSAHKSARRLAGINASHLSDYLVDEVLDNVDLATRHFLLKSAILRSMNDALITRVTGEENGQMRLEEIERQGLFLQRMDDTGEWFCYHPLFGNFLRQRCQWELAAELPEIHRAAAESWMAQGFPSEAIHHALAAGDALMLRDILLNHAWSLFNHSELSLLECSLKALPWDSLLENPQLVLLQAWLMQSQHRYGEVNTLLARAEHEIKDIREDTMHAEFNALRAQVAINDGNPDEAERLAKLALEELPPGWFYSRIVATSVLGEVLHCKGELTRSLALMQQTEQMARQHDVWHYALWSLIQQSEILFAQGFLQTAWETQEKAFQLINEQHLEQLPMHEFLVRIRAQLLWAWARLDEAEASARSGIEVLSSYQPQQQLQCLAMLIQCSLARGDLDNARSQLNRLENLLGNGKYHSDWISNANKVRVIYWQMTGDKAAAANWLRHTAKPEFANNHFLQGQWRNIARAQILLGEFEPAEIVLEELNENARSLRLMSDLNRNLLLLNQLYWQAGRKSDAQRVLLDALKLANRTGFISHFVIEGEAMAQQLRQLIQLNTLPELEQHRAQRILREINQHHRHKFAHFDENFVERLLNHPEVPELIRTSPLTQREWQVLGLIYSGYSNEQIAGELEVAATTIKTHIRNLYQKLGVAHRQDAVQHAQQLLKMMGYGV

[3] = target: T3, HMalT^336-806 (arm-sensor polypeptide) (Escherichia coli, UniProt P06993); assay: intrinsic tryptophan fluorescence titration, quadratic fit; format: binding; conditions: 20 mM Tris-HCl pH 8.0, 0.2 M KCl, 20°C; 1 μM protein; excitation 295 nm, emission 323 nm
T3 construct: gene malT; arm-sensor fragment, residues 336-806, His-tagged; purified on Ni2+ resin then Superdex 200
T3 sequence (P06993 336-806): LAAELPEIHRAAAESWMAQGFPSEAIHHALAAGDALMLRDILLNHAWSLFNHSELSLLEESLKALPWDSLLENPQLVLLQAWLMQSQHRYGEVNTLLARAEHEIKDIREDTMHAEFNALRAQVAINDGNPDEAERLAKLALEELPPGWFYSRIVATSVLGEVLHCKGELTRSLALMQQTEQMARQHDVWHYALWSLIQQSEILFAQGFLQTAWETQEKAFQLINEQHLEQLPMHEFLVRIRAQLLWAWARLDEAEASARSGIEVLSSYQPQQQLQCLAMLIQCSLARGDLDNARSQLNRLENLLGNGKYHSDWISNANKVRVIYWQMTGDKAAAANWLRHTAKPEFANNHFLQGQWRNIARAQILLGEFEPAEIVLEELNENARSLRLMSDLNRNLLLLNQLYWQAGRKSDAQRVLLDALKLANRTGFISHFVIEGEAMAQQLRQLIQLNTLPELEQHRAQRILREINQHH

HMalT (His-tagged MalT) [4] = target: T1, HMalT (His-tagged MalT); assay: limited proteinase K proteolysis protection (arm-sensor hinge), SDS-PAGE quantification, binding isotherm; conditions: 50 mM HEPES pH 8.0, 10.1 mM Mg acetate, 0.44 mM ATP, 25°C; no reducing agent; full saturation assumed at 50 mM; read-out: KD (apparent dissociation constant)
HMalT (His-tagged MalT) [5] = target: T2, HMalT (His-tagged MalT); assay: as above; conditions: 50 mM HEPES pH 8.0, 10.1 mM Mg acetate, 0.44 mM ATP, 25°C; no reducing agent: oxidized form, C70-C395 disulfide locks NOD closed; full saturation assumed at 50 mM; read-out: KD (apparent dissociation constant)

## Nc1ncnc2c1ncn2[C@@H]1O[C@H](COP(=O)(O)OP(=O)(O)O)[C@@H](O)[C@H]1O [ADP]
HMalT (His-tagged MalT) [1]
  t1/2: 1.98 ± 0.183 h
HMalT (His-tagged MalT) [2]
  t1/2: > 8.33 h

## OC[C@H]1O[C@H](O[C@H]2[C@H](O)[C@@H](O)[C@@H](O[C@H]3[C@H](O)[C@@H](O)C(O)O[C@@H]3CO)O[C@@H]2CO)[C@H](O)[C@@H](O)[C@@H]1O (some centres unmarked) [maltotriose]
[3]
  Kd: 2.7 ± 1.2 µM
HMalT (His-tagged MalT) [4]
  Kd: 131 ± 12 µM
HMalT (His-tagged MalT) [5]
  Kd: 2600 ± 500 µM
